Measured values taken from ChEMBL document CHEMBL2010687 (Bioorg Med Chem Lett, 2012).

Assays:
[1] = target: T1, Growth hormone secretagogue receptor type 1 (Homo sapiens, UniProt Q92847); assay: Antagonist activity at human GHSR1a receptor assessed as intracellular Ca2+ concentration by aequorin luminescent assay; format: functional, cell-based
[2] = Metabolic stability in human liver S9 fraction assessed as compound remaining after 1 hr; format: ADME, subcellular; conditions: read-out: Stability
[3] = Metabolic stability in rat liver S9 fraction assessed as compound remaining after 1 hr; format: ADME, subcellular; conditions: read-out: Stability
[4] = Clearance in Sprague-Dawley rat at 2 mg/kg, po; format: ADME, organism-based; design: dose 2 mg/kg, route oral; conditions: in vivo
[5] = AUC in Sprague-Dawley rat at 2 mg/kg, po; format: ADME, organism-based; design: dose 2 mg/kg, route oral; conditions: plasma
[6] = Oral bioavailability in Sprague-Dawley rat at 2 mg/kg; format: ADME, organism-based; conditions: in vivo
[7] = target: Growth hormone secretagogue receptor type 1 (Mus musculus, UniProt Q99P50); assay: Antagonist activity at mouse GHSR1 receptor assessed as intracellular Ca2+ concentration by aequorin luminescent assay; format: functional, cell-based
[8] = target: T1, Growth hormone secretagogue receptor type 1; assay: Displacement of [125I]Ghrelin from human GHSR1a receptor

T1 sequence (Q92847 whole entry): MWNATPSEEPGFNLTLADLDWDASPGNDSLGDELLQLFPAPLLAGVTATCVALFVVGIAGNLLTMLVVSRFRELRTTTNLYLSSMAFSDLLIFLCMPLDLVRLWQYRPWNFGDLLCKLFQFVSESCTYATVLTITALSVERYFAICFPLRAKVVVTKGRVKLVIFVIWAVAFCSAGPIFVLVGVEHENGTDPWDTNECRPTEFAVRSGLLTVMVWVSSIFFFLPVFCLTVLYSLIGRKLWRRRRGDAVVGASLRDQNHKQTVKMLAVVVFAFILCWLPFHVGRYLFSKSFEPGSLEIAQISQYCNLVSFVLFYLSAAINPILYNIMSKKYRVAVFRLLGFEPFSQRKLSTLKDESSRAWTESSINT
Growth hormone secretagogue receptor type 1 (Mus musculus, UniProt Q99P50), sequence (Q99P50 whole entry): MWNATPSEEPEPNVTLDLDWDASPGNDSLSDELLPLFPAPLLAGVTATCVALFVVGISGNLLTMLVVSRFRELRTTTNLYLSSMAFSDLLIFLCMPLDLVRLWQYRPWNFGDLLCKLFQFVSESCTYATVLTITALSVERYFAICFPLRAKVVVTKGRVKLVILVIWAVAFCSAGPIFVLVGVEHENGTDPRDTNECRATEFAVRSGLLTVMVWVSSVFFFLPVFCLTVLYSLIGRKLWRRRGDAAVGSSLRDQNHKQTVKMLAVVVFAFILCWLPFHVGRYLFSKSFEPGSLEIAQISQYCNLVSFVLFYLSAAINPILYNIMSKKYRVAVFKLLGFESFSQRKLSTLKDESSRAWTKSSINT

Compound | IC50 [1] [nM] | remaining at 1 h [2] [%] | remaining at 1 h [3] [%] | also measured
CC(C)[C@H](C[C@H]1CC[C@@H](NCc2ccccc2)CC1)N1CC(=O)Nc2ccc(Oc3ccccc3)cc2C1=O | 6 | – | – | –
CC(C)[C@H](C(=O)N1CCC(N[C@H](C)c2ccccc2)CC1)N1CC(=O)Nc2ccc(Oc3ccccc3)cc2C1=O | 2.5 | 27 | 46 | –
O=C1CN([C@@H](C(=O)NC2CCN(Cc3ccccc3)CC2)C2CC2)C(=O)c2cc(Oc3ccccc3)ccc2N1 | 12 | – | – | –
CC(C)[C@H](C(=O)N1CCC(NCCC2CCCCC2)CC1)N1CC(=O)Nc2ccc(Oc3ccccc3)cc2C1=O | 4.1 | 76 | – | –
CC(C)[C@H](C(=O)NC1CCN(C(=O)c2ccccc2)CC1)N1CC(=O)Nc2ccc(Oc3ccccc3)cc2C1=O | > 10000 | – | – | –
CC(C)[C@H](C(=O)N1CCC(NCC2CC2)CC1)N1CC(=O)Nc2ccc(Oc3ccccc3)cc2C1=O | 50 | 86 | 71 | –
CC(C)[C@H](C(=O)N1CCC(NC(C)(C)c2ccccc2)CC1)N1CC(=O)Nc2ccc(Oc3ccccc3)cc2C1=O | 16.5 | 19 | 48 | –
CC(C)[C@H](C[C@H]1CC[C@@H](NCC2CC2)CC1)N1CCCc2ccc(Oc3ccc(F)cc3F)cc2C1=O | 2 | 92 | 97 | CL/F [4]: 10 mL/min/kg; AUC [5]: 618 ng·h/mL; bioavailability [6]: 39%
CC(C)[C@H](C(=O)NC1CCNCC1)N1CC(=O)Nc2ccc(Oc3ccccc3)cc2C1=O | > 10000 | – | – | –
CC(C)[C@H](C(=O)NC1CCC(Cc2ccccc2)CC1)N1CC(=O)Nc2ccc(Oc3ccccc3)cc2C1=O (stereo not given in full) | > 10000 | 23 | 95 | –
CC(C)[C@H](C[C@H]1CC[C@@H](NCC2CC2)CC1)N1CC(=O)Nc2ccc(Oc3ccc(F)cc3F)cc2C1=O | 20 | 68 | 27 | –
CC(C)[C@H](C(=O)N1CCC(N[C@H](C)C2CCCCC2)CC1)N1CC(=O)Nc2ccc(Oc3ccccc3)cc2C1=O | 2.5 | 30 | 28 | –
O=C1CN(CC(=O)NC2CCN(Cc3ccccc3)CC2)C(=O)c2cc(Oc3ccccc3)ccc2N1 | 314 | – | – | –
CC(C)[C@H](C(=O)N1CCC(NCCC2CCOCC2)CC1)N1CC(=O)Nc2ccc(Oc3ccccc3)cc2C1=O | 313 | – | – | –
CC(C)[C@H](C(=O)N1CCC(NCc2ccccc2)CC1)N1CC(=O)Nc2ccc(Oc3ccccc3)cc2C1=O | 8 | 62 | 72 | –

Second part, led by results:

IC50 [1] [nM] | remaining at 1 h [2] [%] | remaining at 1 h [3] [%] | Compound | also measured
28 | – | – | CC(C)[C@H](C(=O)NC1CCN(Cc2ccccc2)CC1)N1CC(=O)Nc2ccc(Oc3ccc(Cl)cc3)cc2C1=O | –
143 | 22 | 10 | COc1cccc(Oc2ccc3c(c2)C(=O)N([C@@H](C(=O)NC2CCN(Cc4ccccc4)CC2)C(C)C)CC(=O)N3)c1 | –
7 | – | – | Cc1ccc(Oc2ccc3c(c2)C(=O)N([C@@H](C(=O)NC2CCN(Cc4ccccc4)CC2)C(C)C)CC(=O)N3)cc1 | –
79 | – | – | COc1ccc(Oc2ccc3c(c2)C(=O)N([C@@H](C(=O)NC2CCN(Cc4ccccc4)CC2)C(C)C)CC(=O)N3)cc1 | –
0.3 | 70 | 65 | CC(C)[C@H](C(=O)N1CCC(NCc2ccccc2)CC1)N1CC(=O)Nc2ccc(Oc3ccc(F)cc3F)cc2C1=O | –
3 | 5 | 3 | Cc1ccccc1Oc1ccc2c(c1)C(=O)N([C@@H](C(=O)NC1CCN(Cc3ccccc3)CC1)C(C)C)CC(=O)N2 | –
0.2 | 5 | 3 | Cc1cc(F)ccc1Oc1ccc2c(c1)C(=O)N([C@@H](C(=O)NC1CCN(Cc3ccccc3)CC1)C(C)C)CC(=O)N2 | –
26 | 26 | 19 | COc1ccccc1Oc1ccc2c(c1)C(=O)N([C@@H](C(=O)NC1CCN(Cc3ccccc3)CC1)C(C)C)CC(=O)N2 | –
171 | – | – | CC(C)[C@H](C(=O)NC1CCN(Cc2ccccc2)CC1)N1CC(=O)Nc2ccc(Oc3cccc(Cl)c3)cc2C1=O | –
1 | – | – | Cc1cccc(C)c1Oc1ccc2c(c1)C(=O)N([C@@H](C(=O)NC1CCN(Cc3ccccc3)CC1)C(C)C)CC(=O)N2 | –
11 | – | – | CC(C)[C@H](C(=O)NC1CCN(Cc2ccccc2)CC1)N1CC(=O)Nc2ccc(Oc3ccc(F)cc3)cc2C1=O | –
196 | – | – | CC(C)[C@@H](C(=O)NC1CCN(Cc2ccccc2)CC1)N1CC(=O)Nc2ccc(Oc3ccccc3)cc2C1=O | –
8 | 30 | 19 | CC(C)[C@H](C(=O)NC1CCN(Cc2ccccc2)CC1)N1CC(=O)Nc2ccc(Oc3ccccc3)cc2C1=O | IC50 [7]: 7 nM; Ki [8]: 4.4 nM; CL/F [4]: 143 mL/min/kg; AUC [5]: 132 ng·h/mL; bioavailability [6]: 6%
